Source: US10695330B2, “Methods of treatment” (Global Blood Therapeutics, Inc., priority 2015, dated 2020)

Test system: activated neutrophils
Test: Oxidative burst in activated neutrophils
Format: cell-based
Details: in vitro
Description: Reactive oxygen species (ROS) released from activated white blood cells cause lung injury as well as fibrotic changes in patients with IPF. […] Thus, the compounds described herein could also provide a method to inhibit the adverse effects of inflammation in a patient. Reduction in systemic pro-inflammatory cytokines (tumor necrosis alpha and interleukin-6) also has the potential to exert a broad anti-inflammatory effect which would supplement the beneficial effect of alleviation of hypoxemia via increased hemoglobin-O2 affinity.

Q: How did the “anti-oxidative activity (oxidative burst)” value turn out when `O=Cc1ccc(CO)o1` [Compound 5-HMF, 5-hydroxymethyl-2-furfural, reference compound] was run?
A: does not display this activity
